# Measurements from patent publication US6676932B2, “Ultraviolet absorbent, photostabilizer, ultraviolet ray-absorbing composition, photostabilized composition and external preparation for skin” (Shiseido Co., Ltd., priority 2001, dated 2004).
# Columns and labels:
# [1] = Stability test in combination with inorganic powder-based ultraviolet shielding agent, sunscreen cream (Test Example 5); format: physicochemical; settings: sunscreen cream with inorganic powders; ultraviolet absorbent 10.0 wt %; 50° C. for 2 months; visual observation
# Description: A sunscreen cream of the following formulation was prepared and stored at 50° C. for 2 months. Under visual observation of the color change, the stability of the inventive pyridazine derivative in combination with inorganic powder-based ultraviolet screening agents commonly in blend as external preparations for skin for the purpose of ultraviolet prevention was examined.
# After the ingredient 2 was added to the ingredient 1 to swell the ingredient 2, the ingredients 3 to 11 were mixed with the resulting mixture under heating, for sufficient dispersion and dissolution. While keeping the dispersion at 70° C., a solution of the mixture of the ingredients 12 to 15 was gradually added to the dispersion under thorough emulsification with a homomixer. The resulting mixture was cooled to 30° C. under sufficient stirring to prepare sunscreen creams.
# [2] = Photostability test of aqueous solutions under daylight (Test Example 4); format: physicochemical; settings: aqueous solution, daylight for 2 weeks (80 MJ); for Change of area under ultraviolet spectrum: 290 nm to 400 nm
# Description: Aqueous solutions of the pyridazine derivative of the invention were exposed to daylight for 2 weeks (at a daylight exposure of 80 MJ). Subsequently, the remaining ratio and the change of the appearance were examined to measure the ultraviolet spectra with a spectrophotometer (solvent: water; concentration of 10 ppm and optical path length of 1 cm). The area under ultraviolet spectra curve from 290 nm to 400 nm were determined by integration to compare the area with the area before daylight exposure.
# The remaining ratio and the change of the area under the ultraviolet spectrum were determined on the basis of the following standards.
# ⊚: 95% or more of those before daylight exposure.
# ◯: 90% or more to less than 95% of those before daylight exposure.
# Δ: 70% or more to less than 90% of those before daylight exposure.
# x: less than 70% of those before daylight exposure.
# [3] = Stabilization effect on perfume under daylight exposure (Test Examples 92 to 181); format: physicochemical; set-up: key: ◯: no change; Δ: almost no change; x: change; settings: daylight exposure (80 MJ)
# Description: Each test sample was prepared for observation of the change of the odor of the test sample (determined by perfume coordinator) before and after daylight exposure (80 MJ).
# [4] = Drug stabilization effect blended with sequestering agent (Test Examples 372 to 391); format: physicochemical; set-up: key to Appearance (visual determination): ◯: no change; Δ: almost no change; x: change; settings: photostabilizer blend amount 0.03, daylight exposure (80 MJ)
# Description: Then, the photostabilization effect of the pyridazine derivative in combination with sequestering agents on each drug and the change of the appearance of each composition were examined, by using the following formulation for assessment.
# (§1) For observation of the change of the appearance of each test sample (determination based on visual observation) and the measurement of the remaining ratio by liquid chromatography before and after daylight exposure (80 MJ), the test sample was prepared.
# [5] = Dye stabilization effect in blend with sequestering agents (Test Examples 212 to 275); format: physicochemical; settings: daylight exposure (80 MJ)
# How it was run: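 Colour difference (ΔE) measured by spectrophotometer in Lab coordinates before and after daylight exposure (80 MJ), relative to pre-exposure values (L1, a1, b1); appearance change also assessed visually.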
# skin [6] = assay: Test of skin irritation: 24-hour occlusion patch test (Test Example 3 ii); format: in vivo, human; settings: 10 wt % ultraviolet absorbent
# Description: (§2) The same samples as in the Test Example 2 were used (at a 10 wt % amount of an ultraviolet absorbent).
# 20 Healthy male and female volunteers per one group were carried out in a 24-hour occlusion patch test, using a fin chamber on forearm curves. Assessment was done on the basis of the following assessment standards.
# Mean score was determined for the assessment on the basis of the following standards.
# (§3) ◯: mean score of more than 0 to less than 1.
# (§4) Δ: mean score of 1 or more to less than 2.
# (§5) x: mean score of 2 or more.
# [7] = Dye stabilization effect under daylight exposure (Test Examples 6-91); format: physicochemical; set-up: key to Δ E: color difference ΔE in Lab vs. color before daylight exposure; key to Appearance (visual determination): ◯: no change; Δ: almost no change; x: change; settings: photostabilizer 0.05 wt %, daylight exposure (80 MJ)
# How it was run: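 Test samples exposed to daylight to 80 MJ; appearance judged visually. Colour measured by spectrophotometer in Lab coordinates, with ΔE calculated relative to pre-exposure values (L1, a1, b1).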
# skin [8] = assay: Test of skin irritation: continuous application test (Test Example 3 i); format: in vivo, human; settings: 10 wt % ultraviolet absorbent, twice daily for 4 weeks
# Description: as §2
# Continuous application test was carried out for 20 healthy subjects per one group. An appropriate amount of each of the samples was coated twice daily for 4 weeks. The effects were assessed according to the following assessment standards.
# Mean score was calculated for the determination of the effect on the basis of the following standards.
# as §3, §4, §5
# [9] = Drug stabilization effect under daylight exposure (Test Examples 182 to 211); format: physicochemical; set-up: key to Appearance (visual determination): ◯: no change; Δ: almost no change; x: change; settings: photostabilizer 0.05 wt %, daylight exposure (80 MJ); for Remaining ratio (%): liquid chromatography
# Description: as §1
# [10] = base perfume Spicy, photostabilizer 0.2 wt %
# [11] = natural perfume Lavender oil, photostabilizer 0.1 wt %
# [12] = natural perfume Ylang ylang oil, photostabilizer 0.2 wt %
# [13] = synthetic perfume Citral, photostabilizer 0.1 wt %
# [14] = synthetic perfume Linalool, photostabilizer 0.05 wt %
# [15] = synthetic perfume Linalyl acetate, photostabilizer 0.1 wt %
# [16] = dye Blue 1 (Brilliant Blue FCF) 0.0001 wt %
# [17] = dye Green 3 (Fast Green FCF) 0.001 wt %
# [18] = dye Red 227 (Acid Fuchsine D) 0.0001 wt %
# [19] = dye Yellow 5 (Sunset Yellow FCF) 0.001 wt %
# [20] = dyes Red 213 (Rhodamine B) 0.00001 + Blue 1 (Brilliant Blue FCF) 0.00001 wt %
# [21] = dyes Red 227 (Acid Fuchsine D) 0.0001 + Yellow 5 (Sunset Yellow FCF) 0.0001 wt %
# [22] = dyes Red 401 (Violanin R) 0.0001 + Blue 1 (Brilliant Blue FCF) 0.00001 wt %
# [23] = drug L-ascorbic acid 2-glucoside 2.0 wt %
# [24] = drug dibutylhydroxytoluene 0.01 wt %
# [25] = drug dl-α-tocopherol 2-L-ascorbic acid phosphate diester potassium salt 0.01 wt %
# [26] = dyes Red 106 (Acid red) 0.00001 + Yellow 203 (Quinoline Yellow WS) 0.0001 wt %
# [27] = drug Dipotassium glycyrrhizinate 0.05 wt %
smiles,measurement,setting,value
"Oc1nncc(N2CCCCC2)c1N1CCCCC1 [4,5-Dipiperidino-3-hydroxypyridazine]",Color change,[1],no
same,Remaining ratio,[2],⊚ (95% or more of those before daylight exposure)
same,Change of area under ultraviolet spectrum,[2],⊚ (95% or more of those before daylight exposure)
same,odor determination,"[3]; base perfume Rose, photostabilizer 0.05 wt %",◯
same,odor determination,[3]; [10],◯
same,odor determination,"[3]; base perfume Woody, photostabilizer 0.1 wt %",◯
same,odor determination,[3]; [11],◯
same,odor determination,"[3]; natural perfume Rose oil, photostabilizer 0.05 wt %",◯
same,odor determination,[3]; [12],◯
same,odor determination,[3]; [13],◯
same,odor determination,[3]; [14],◯
same,odor determination,[3]; [15],◯
same,Appearance (visual determination),"[4]; drug Salicylic acid 0.1, no sequestering agent",Δ
same,Appearance (visual determination),"[4]; drug Salicylic acid 0.1, with ethylenediamine tetraacetate trisodium 0.03",◯
same,Δ E,"[5]; dye Red 227 (Acid Fuchsine D) 0.0001, photostabilizer 0.01, no sequestering agent",0.98
same,Δ E,"[5]; dye Red 227 (Acid Fuchsine D) 0.0001, photostabilizer 0.01, with ethylenediaminehydroxyethyl trisodium triacetate 0.02",0.52
same,Δ E,"[5]; dye Red 227 (Acid Fuchsine D) 0.0001, photostabilizer 0.01, with ethylenediaminetetraacetate trisodium 0.02",0.72
same,Δ E,"[5]; dye Red 227 (Acid Fuchsine D) 0.0001, photostabilizer 0.01, with sodium metaphosphate 0.02",0.61
same,"Determination (skin reaction, patch test)",skin [6]; cream,⊚ (mean score of 0)
same,"Determination (skin reaction, patch test)",skin [6]; lotion,⊚ (mean score of 0)
same,Appearance (visual determination),[7]; [16],◯
same,Δ E,[7]; [16],1.22
same,Appearance (visual determination),[7]; [17],◯
same,Δ E,[7]; [17],0.45
same,Appearance (visual determination),[7]; [18],◯
same,Δ E,[7]; [18],0.53
same,Appearance (visual determination),[7]; [19],◯
same,Δ E,[7]; [19],0.55
same,Appearance (visual determination),[7]; [20],◯
same,Δ E,[7]; [20],1.11
same,Appearance (visual determination),[7]; [21],◯
same,Δ E,[7]; [21],0.63
same,Appearance (visual determination),[7]; [22],◯
same,Δ E,[7]; [22],0.38
same,"Determination (skin reaction, continuous application test)",skin [8]; cream,⊚ (mean score of 0)
same,"Determination (skin reaction, continuous application test)",skin [8]; lotion,⊚ (mean score of 0)
same,Appearance (visual determination),[9]; [23],◯
same,Remaining ratio (%),[9]; [23],99.3%
same,Appearance (visual determination),[9]; [24],◯
same,Remaining ratio (%),[9]; [24],99.0%
same,Appearance (visual determination),[9]; [25],◯
same,Remaining ratio (%),[9]; [25],99.1%
same,Appearance (visual determination),[9]; drug salicylic acid 0.1 wt %,◯
same,Remaining ratio (%),[9]; drug salicylic acid 0.1 wt %,99.6%
"Oc1cc(N2CCOCC2)cnn1 [3-Hydroxy-5-morpholinopyridazine, 3-hydroxy-5-morpholinopyridazine]",Color change,[1],no
same,Remaining ratio,[2],⊚ (95% or more of those before daylight exposure)
same,Change of area under ultraviolet spectrum,[2],⊚ (95% or more of those before daylight exposure)
same,odor determination,"[3]; base perfume Muge, photostabilizer 0.05 wt %",◯
same,odor determination,[3]; [10],◯
same,odor determination,"[3]; natural perfume Jasmine oil, photostabilizer 0.05 wt %",◯
same,odor determination,[3]; [11],◯
same,odor determination,[3]; [12],◯
same,odor determination,[3]; [13],◯
same,odor determination,[3]; [14],◯
same,odor determination,[3]; [15],◯
same,odor determination,"[3]; synthetic perfume Rose oxide, photostabilizer 0.2 wt %",◯
same,Appearance (visual determination),"[4]; drug Glycyrrhizinic acid dipotassium 0.05, no sequestering agent",◯
same,Appearance (visual determination),"[4]; drug Glycyrrhizinic acid dipotassium 0.05, with sodium metaphosphate 0.03",◯
same,Δ E,"[5]; dye Yellow 5 (Sunset Yellow FCF) 0.0001, photostabilizer 0.01, no sequestering agent",0.61
same,Δ E,"[5]; dye Yellow 5 (Sunset Yellow FCF) 0.0001, photostabilizer 0.01, with ethylenediaminetetraacetate trisodium 0.03",0.52
same,Δ E,"[5]; dye Yellow 5 (Sunset Yellow FCF) 0.0001, photostabilizer 0.01, with sodium metaphosphate 0.03",0.55
same,Δ E,"[5]; dye Yellow 5 (Sunset Yellow FCF) 0.0001, photostabilizer 0.01, with sodium polyphosphate 0.03",0.46
same,Δ E,"[5]; dyes Red 227 (Acid Fuchsine D) 0.0001 + Yellow 203 (Quinoline Yellow WS) 0.0001, no sequestering agent, photostabilizer blend amount 0.01",1.68
same,Δ E,"[5]; dyes Red 227 (Acid Fuchsine D) 0.0001 + Yellow 203 (Quinoline Yellow WS) 0.0001, with sodium metaphosphate 0.02, photostabilizer blend amount 0.01",0.98
same,"Determination (skin reaction, patch test)",skin [6]; cream,⊚ (mean score of 0)
same,"Determination (skin reaction, patch test)",skin [6]; lotion,⊚ (mean score of 0)
same,Appearance (visual determination),[7]; [16],◯
same,Δ E,[7]; [16],1.31
same,Appearance (visual determination),[7]; [17],◯
same,Δ E,[7]; [17],0.48
same,Appearance (visual determination),[7]; [18],◯
same,Δ E,[7]; [18],0.52
same,Appearance (visual determination),[7]; [19],◯
same,Δ E,[7]; [19],0.52
same,Appearance (visual determination),[7]; [26],◯
same,Δ E,[7]; [26],0.85
same,Appearance (visual determination),[7]; [20],◯
same,Δ E,[7]; [20],1.08
same,Appearance (visual determination),[7]; [22],◯
same,Δ E,[7]; [22],0.44
same,"Determination (skin reaction, continuous application test)",skin [8]; cream,⊚ (mean score of 0)
same,"Determination (skin reaction, continuous application test)",skin [8]; lotion,⊚ (mean score of 0)
same,Appearance (visual determination),[9]; [27],◯
same,Remaining ratio (%),[9]; [27],98.9%
same,Appearance (visual determination),[9]; [24],◯
same,Remaining ratio (%),[9]; [24],98.8%
same,Appearance (visual determination),[9]; [25],◯
same,Remaining ratio (%),[9]; [25],98.0%
